The text below walks through data of US20260263350A1, “COMPOSITIONS” (Estrenue Pty Ltd, priority 2022, published 2026).

For this data set the following is noted: one skin biopsy 0.28 cm^2, 90 minutes.

Where “and” joins values, the source holds several entries; their conditions need not be identical. Equal entries are not always repeated.

Description: A solution of E2 14C was prepared by adding 6 μL of E2 14C to 100 μL of water:ethanol (9:1) and mixed thoroughly.
The skin was marked with a surface area of 1.3 cm^2 followed by 20 times of tape stripping (D-Squame tape, 22 mm diameter) to remove the stratum corneum. The prepared E2 solutions were applied on tape stripped skin and left in the water bath for 90 minutes at 37° C. At the end of the experiment, residual materials were removed from the surface by wetting cotton swabs three times. The skin was then biopsied using a microsampling device with a diameter of 6 mm. Each piece of biopsy was placed in a 4 mL scintillation tube followed by adding 500 μL of the Solvable™ solution (Perkin Elmer Inc. USA). The samples were left in the incubator at 60° C. to digest skin overnight. To measure the E2 14C amount in each, scintillation fluid (Ultima Gold™ XR, Perkin Elmer Inc. USA) was added to fill the 4 mL tube and vortexed vigorously. […] The experiment was done in triplicates.
To calculate DPM, a counting efficiency of 25% was considered.

For the compound `C[C@]12CC[C@@H]3c4ccc(O)[14cH]c4CC[C@H]3[C@@H]1CC[C@@H]2O` [E2-14C, Estradiol, 17 β-[4-^14C]], the CPM (10 μL/cm^2 in water-ethanol on tape stripped skin) was 1365 and 940 and 869. In addition, the DPM (counting efficiency 25%, tape stripped skin) was 5337 and 3760 and 3476. For the setting “tape stripped skin”, the “Total E2 (ng/Biopsy)” value is 11.9 ng/Biopsy and 8.4 ng/Biopsy and 7.7 ng/Biopsy; the “ng/Biopsy (E2-14C)” value was 11.9 ng/Biopsy and 8.4 ng/Biopsy and 7.7 ng/Biopsy; the μCi/Biopsy was 0.002402 μCi/Biopsy and 0.001692 μCi/Biopsy and 0.001564 μCi/Biopsy.
